Laboratory results as given in patent US6376497B1, “Antifungal azole derivatives having a fluorinated vinyl group and process for preparing same” (Korea Research Institute of Chemical Technology, priority 1999, dated 2002).
Converted amounts (≈) assume the structure as drawn.

Key:
Assay in all cases: In vitro antifungal activity, microbroth dilution MIC
Assay type in all cases: cell-based
[1] = tested on: Trichophyton mentagrophytes A. 9129; settings: 4 to 48 hours; for Minimal inhibitory concentration (MIC): T. mentagrophytes A. 9129, RPMI-1640, 35° C.; for Minimal inhibitory concentration(MIC), T. mentagrophytes A. 9129: RPMI-1640, 35° C., no growth observed
Description: (§1) In vitro antifungal activities of the inventive antifungal compounds were evaluated using the test strains shown in Table VIII by the following microbroth dilution method which is a modified version of the procedure recommended by National Committee for Clinical Laboratory Standards(see National Committee for Clinical Laboratory Standards, 1992, Reference methods for broth dilution antifungal susceptibility testing of yeasts, Proposed standard M27-P, National Committee for clinical laboratory standards, Villanova, Pa; and National Committee for Clinical Laboratory Standards, 1995, Reference methods for broth dilution antifungal susceptibility testing of yeasts. Tentative standard M27-T, National Committee for clinical laboratory standards, Villanova, Pa).
(§2) Sabourad Dextrose Agar(Difco) was used as a culture medium, and RPMI-1640 broth(Sigma. Co. w/L-glutamine, wo/NaHCO3)(0.165 M MOPS, pH 7.0), as a dilution medium.
(§3) Each of the test strains were subcultured in Sabourad Dextrose Agar medium twice and a stain sample was taken from prominent colonies and suspended in sterile physiological saline solution in a cap tube. The turbidity of the suspension was adjusted to that of the Mcfarland 0.5 standard sample(approximately 10^6 CFU/ml). Then the suspension was diluted 500-fold with sterile RPMI-1640 liquid medium to 2×10^3 CFU/ml.
(§4) Each of the test compounds(the compounds obtained in Examples 1 to 150 and comparative compounds, i.e., fluconazole(FCZ) and itraconazole (ICZ)), was dissolved in DMSO to give a stock solution having a concentration of 4000 μg/ml and the stock solution was successively diluted to obtain test solutions having test compound concentrations of 200, 100, 50, 25, 12.5, 6.25, 3.13, 1.56, 0.78, 0.39, 0.20 and 0.10 μg/ml, respectively.
(§5) 0.1 ml portion of the test solutions were added to the wells of a sterile 96 well plate. Then, 0.1 ml portion of each of the test strain solutions were added successively to the wells and the plate was incubated at 35° C. for 4 to 48 hours.
(§6) Minimal inhibitory concentration(MIC) of each compound was defined as the concentration of the test compound where no growth of the strain could be observed.

[2] = tested on: Candida pseudotropicalis K. 11658; settings: 4 to 48 hours; for Minimal inhibitory concentration (MIC): C. pseudotropicalis K. 11658, RPMI-1640, 35° C.; for Minimal inhibitory concentration(MIC), C. pseudotropicalis K. 11658: RPMI-1640, 35° C., no growth observed
Description: as §1, §2, §3, §4, §5, §6

[3] = tested on: Candida parapsitosis A. 7330; settings: 4 to 48 hours; for Minimal inhibitory concentration (MIC): C. parapsitosis A. 7330, RPMI-1640, 35° C.; for Minimal inhibitory concentration(MIC), C. parapsitosis A. 7330: RPMI-1640, 35° C., no growth observed
Description: as §1, §2, §3, §4, §5, §6

[4] = tested on: Cryptococcus neoformans A. 34144; settings: 4 to 48 hours; for Minimal inhibitory concentration (MIC): Cry. neoformans A. 34144, RPMI-1640, 35° C.; for Minimal inhibitory concentration(MIC), Cry. neoformans A. 34144: RPMI-1640, 35° C., no growth observed
Description: as §1, §2, §3, §4, §5, §6

[5] = tested on: Aspergillus niger A. 16404; settings: 4 to 48 hours; for Minimal inhibitory concentration (MIC): A. niger A. 16404, RPMI-1640, 35° C.; for Minimal inhibitory concentration(MIC), A. niger A. 16404: RPMI-1640, 35° C., no growth observed
Description: as §1, §2, §3, §4, §5, §6

[6] = tested on: Aspergillus furnigatus B. 19119; settings: 4 to 48 hours; for Minimal inhibitory concentration (MIC): A furnigatus B. 19119, RPMI-1640, 35° C.; for Minimal inhibitory concentration(MIC), A furnigatus B. 19119: RPMI-1640, 35° C., no growth observed
Description: as §1, §2, §3, §4, §5, §6

[7] = tested on: Candida albicans IFO. 1385; settings: 4 to 48 hours; for Minimal inhibitory concentration (MIC): C. albicans IFO. 1385, RPMI-1640, 35° C.; for Minimal inhibitory concentration(MIC), C. albicans IFO. 1385: RPMI-1640, 35° C., no growth observed
Description: as §1, §2, §3, §4, §5, §6

Candida krusei K. 11655 = settings: 4 to 48 hours; for Minimal inhibitory concentration (MIC): C. krusei K. 11655, RPMI-1640, 35° C.; for Minimal inhibitory concentration(MIC), C. krusei K. 11655: RPMI-1640, 35° C., no growth observed
Description: as §1, §2, §3, §4, §5, §6

Candida albicans C1-2 = settings: 4 to 48 hours; for Minimal inhibitory concentration (MIC): C. albicans C1-2, RPMI-1640, 35° C.; for Minimal inhibitory concentration(MIC), C. albicans C1-2: RPMI-1640, 35° C., no growth observed
Description: as §1, §2, §3, §4, §5, §6

[8] = tested on: Cryptococcus neoformans IFM. 40092; settings: 4 to 48 hours; for Minimal inhibitory concentration (MIC): Cry. neoformans IFM. 40092, RPMI-1640, 35° C.; for Minimal inhibitory concentration(MIC), Cry. neoformans IFM. 40092: RPMI-1640, 35° C., no growth observed
Description: as §1, §2, §3, §4, §5, §6

[9] = tested on: Candida tropicalis A. 13803; settings: 4 to 48 hours; for Minimal inhibitory concentration (MIC): C. tropicalis A. 13803, RPMI-1640, 35° C.; for Minimal inhibitory concentration(MIC), C. tropicalis A. 13803: RPMI-1640, 35° C., no growth observed
Description: as §1, §2, §3, §4, §5, §6

[10] = tested on: Trichophyton mentagrophytes B. 32663; settings: 4 to 48 hours; for Minimal inhibitory concentration (MIC): T. mentagrophytes B. 32663, RPMI-1640, 35° C.; for Minimal inhibitory concentration(MIC), T. mentagrophytes B. 32663: RPMI-1640, 35° C., no growth observed
Description: as §1, §2, §3, §4, §5, §6

[11] = tested on: Candida albicans A. 10231; settings: 4 to 48 hours; for Minimal inhibitory concentration (MIC): C. albicans A. 10231, RPMI-1640, 35° C.; for Minimal inhibitory concentration(MIC), C. albicans A. 10231: RPMI-1640, 35° C., no growth observed
Description: as §1, §2, §3, §4, §5, §6

[12] = tested on: Cryptococcus neoformans B. 42419; settings: 4 to 48 hours; for Minimal inhibitory concentration (MIC): Cry. neoformans B. 42419, RPMI-1640, 35° C.; for Minimal inhibitory concentration(MIC), Cry. neoformans B. 42419: RPMI-1640, 35° C., no growth observed
Description: as §1, §2, §3, §4, §5, §6

[13] = tested on: Torulopsis glabrata B. 16205; settings: 4 to 48 hours; for Minimal inhibitory concentration (MIC): T. glabrata B. 16205, RPMI-1640, 35° C.; for Minimal inhibitory concentration(MIC), T. glabrata B. 16205: RPMI-1640, 35° C., no growth observed
Description: as §1, §2, §3, §4, §5, §6

Minimal inhibitory concentration (MIC) [1]	Minimal inhibitory concentration (MIC) [2]	Minimal inhibitory concentration (MIC) [3]	Minimal inhibitory concentration (MIC) [4]	Minimal inhibitory concentration (MIC) [5]	Minimal inhibitory concentration (MIC) (Candida albicans C1-2)	Minimal inhibitory concentration (MIC) [11]	Minimal inhibitory concentration(MIC), T. mentagrophytes A. 9129 [1]	Minimal inhibitory concentration(MIC), C. pseudotropicalis K. 11658 [2]	Minimal inhibitory concentration(MIC), C. parapsitosis A. 7330 [3]	Minimal inhibitory concentration(MIC), Cry. neoformans A. 34144 [4]	Minimal inhibitory concentration(MIC), A. niger A. 16404 [5]	Minimal inhibitory concentration(MIC), A furnigatus B. 19119 [6]	Minimal inhibitory concentration(MIC), C. albicans IFO. 1385 [7]	Minimal inhibitory concentration(MIC), C. krusei K. 11655 (Candida krusei K. 11655)	Minimal inhibitory concentration(MIC), Cry. neoformans IFM. 40092 [8]	Minimal inhibitory concentration(MIC), C. tropicalis A. 13803 [9]	Minimal inhibitory concentration(MIC), T. mentagrophytes B. 32663 [10]	Minimal inhibitory concentration(MIC), Cry. neoformans B. 42419 [12]	Minimal inhibitory concentration(MIC), T. glabrata B. 16205 [13]	Structure (SMILES)	also measured
3.13 mg/L (≈ 6.53 µM)	12.5 mg/L (≈ 26.1 µM)	12.5 mg/L (≈ 26.1 µM)	3.13 mg/L (≈ 6.53 µM)	6.25 mg/L (≈ 13 µM)	25.0 mg/L (≈ 52.2 µM)	12.5 mg/L (≈ 26.1 µM)	–	–	–	–	–	–	–	–	–	–	–	–	–	COc1cccc(C=C(F)OCC2COC(Cn3ccnc3)(c3ccc(Cl)cc3Cl)O2)c1 (stereo not drawn) [Ex. 8]	Minimal inhibitory concentration (MIC) [6]: 6.25 mg/L (≈ 13 µM); Minimal inhibitory concentration (MIC) [7]: 1.56 mg/L (≈ 3.25 µM); Minimal inhibitory concentration (MIC) (Candida krusei K. 11655): 6.25 mg/L (≈ 13 µM); Minimal inhibitory concentration (MIC) [8]: 0.78 mg/L (≈ 1.63 µM); Minimal inhibitory concentration (MIC) [9]: 25.0 mg/L (≈ 52.2 µM); Minimal inhibitory concentration (MIC) [10]: 1.56 mg/L (≈ 3.25 µM); Minimal inhibitory concentration (MIC) [12]: 1.56 mg/L (≈ 3.25 µM); Minimal inhibitory concentration (MIC) [13]: 6.25 mg/L (≈ 13 µM)
–	–	–	–	–	–	–	>100 mg/L	>100 mg/L	>100 mg/L	3.13 mg/L	>100 mg/L	>100 mg/L	12.5 mg/L	>100 mg/L	0.39 mg/L	>100 mg/L	>100 mg/L	3.13 mg/L	>100 mg/L	Cc1ccc(C(=C(F)OCC2COC(Cn3cncn3)(c3ccc(Cl)cc3Cl)O2)C(F)(F)F)cc1C (mixture of isomers) [Ex. 82]	Minimal inhibitory concentration(MIC), C. albicans C1-2 (Candida albicans C1-2): >100 mg/L; Minimal inhibitory concentration(MIC), C. albicans A. 10231 [11]: >100 mg/L
–	–	–	–	–	–	–	12.5 mg/L	>100 mg/L	>100 mg/L	3.13 mg/L	>100 mg/L	100 mg/L	3.13 mg/L	>100 mg/L	0.78 mg/L	>100 mg/L	6.25 mg/L	3.13 mg/L	50.0 mg/L	FC(Oc1ccc(OCC2COC(Cn3ccnc3)(c3ccc(Cl)cc3Cl)O2)cc1)=C(c1cccc(F)c1)C(F)(F)F (mixture of isomers) [Ex. 103]	Minimal inhibitory concentration(MIC), C. albicans C1-2 (Candida albicans C1-2): 50.0 mg/L; Minimal inhibitory concentration(MIC), C. albicans A. 10231 [11]: 50.0 mg/L
–	–	–	–	–	100 mg/L	100 mg/L	6.25 mg/L	6.25 mg/L	12.5 mg/L	3.13 mg/L	>100 mg/L	100 mg/L	25.0 mg/L	12.5 mg/L	0.78 mg/L	100 mg/L	6.25 mg/L	1.56 mg/L	50.0 mg/L	FC(=Cc1ccc(F)cc1)OCC1COC(Cn2cncn2)(c2ccc(Cl)cc2Cl)O1 (mixture of isomers) [Ex. 77]	–
6.25 mg/L	12.5 mg/L	12.5 mg/L	1.56 mg/L	50.0 mg/L	12.5 mg/L	12.5 mg/L	–	–	–	–	–	–	–	–	–	–	–	–	–	Cc1ccc(C=C(F)OCC2COC(Cn3ccnc3)(c3ccc(F)cc3F)O2)cc1 (mixture of isomers) [Ex. 38]	Minimal inhibitory concentration (MIC) [6]: 12.5 mg/L; Minimal inhibitory concentration (MIC) [7]: 0.39 mg/L; Minimal inhibitory concentration (MIC) (Candida krusei K. 11655): 25.0 mg/L; Minimal inhibitory concentration (MIC) [8]: 0.20 mg/L; Minimal inhibitory concentration (MIC) [9]: 25.0 mg/L; Minimal inhibitory concentration (MIC) [10]: 1.56 mg/L; Minimal inhibitory concentration (MIC) [12]: 1.56 mg/L; Minimal inhibitory concentration (MIC) [13]: 6.25 mg/L
1.56 mg/L (≈ 3.37 µM)	6.25 mg/L (≈ 13.5 µM)	6.25 mg/L (≈ 13.5 µM)	0.39 mg/L (≈ 0.842 µM)	3.13 mg/L (≈ 6.76 µM)	25.0 mg/L (≈ 54 µM)	12.5 mg/L (≈ 27 µM)	–	–	–	–	–	–	–	–	–	–	–	–	–	Cc1ccc(C=C(F)OCC2COC(Cn3ccnc3)(c3ccc(Cl)cc3Cl)O2)cc1 (stereo not drawn) [Ex. 3]	Minimal inhibitory concentration (MIC) [6]: 3.13 mg/L (≈ 6.76 µM); Minimal inhibitory concentration (MIC) [7]: 0.78 mg/L (≈ 1.68 µM); Minimal inhibitory concentration (MIC) (Candida krusei K. 11655): 6.25 mg/L (≈ 13.5 µM); Minimal inhibitory concentration (MIC) [8]: 1.56 mg/L (≈ 3.37 µM); Minimal inhibitory concentration (MIC) [9]: 25.0 mg/L (≈ 54 µM); Minimal inhibitory concentration (MIC) [10]: 1.56 mg/L (≈ 3.37 µM); Minimal inhibitory concentration (MIC) [12]: 3.13 mg/L (≈ 6.76 µM); Minimal inhibitory concentration (MIC) [13]: 3.13 mg/L (≈ 6.76 µM)
–	–	–	–	–	–	–	25.0 mg/L	>100 mg/L	>100 mg/L	12.5 mg/L	>100 mg/L	100 mg/L	6.25 mg/L	>100 mg/L	3.13 mg/L	>100 mg/L	12.5 mg/L	>100 mg/L	100 mg/L	FC(Oc1ccc(OCC2COC(Cn3ccnc3)(c3ccc(Cl)cc3Cl)O2)cc1)=C(c1ccc(Cl)cc1)C(F)(F)F (mixture of isomers) [Ex. 102]	Minimal inhibitory concentration(MIC), C. albicans C1-2 (Candida albicans C1-2): 100 mg/L; Minimal inhibitory concentration(MIC), C. albicans A. 10231 [11]: 100 mg/L
